Results reported in article PMC5866837, “Towards a generic physiologically based kinetic model to predict in vivo uterotrophic responses in rats by reverse dosimetry of in vitro estrogenicity data” (Archives of Toxicology, 2017).
Read-outs that look alike come from different tables or passages of the source. Marks after values point to notes of the source that are not given here.

Tests used:
uterus weight in rats = settings: oral gavage, cited from earlier work
[1] = Rapid equilibrium dialysis (RED), fraction unbound in rat serum; format: in vitro ADME; settings: RED 5 h at 37 °C, read-out: f ub (fraction unbound)
Protocol: The assay medium used in the ER-CALUX and the proliferation assay contains 5% FCS, so the RED assay was performed using the assay medium for these two assays and for rat serum. The f ub was determined using the protocol described by Waters et al. ([2008]). The RED device insert has two chambers, a plasma and a buffer chamber. […] After incubating for 5 h at 37 °C at 250 rpm on an orbital shaker, the system reaches equilibrium (van […] et al. [2011]). 25 μL of post-dialysis samples were collected from the plasma and buffer chambers in separate tubes. Simultaneously, 25 μL of corresponding buffer (PBS) was added to the sample taken from the plasma chamber and the same volume of corresponding rat serum or in vitro medium was added to the sample taken from the buffer chamber. Then, 300 μL cold precipitation buffer (90/10 ACN/water) was added to both samples to precipitate the proteins and release the compound. The samples were put on ice for 30 min and subsequently centrifuged for 15 min at 15,000×g (CT 15RE, Hitachi Koki Co., Ltd). Then, the supernatants were collected for UPLC analysis. By determining the compound concentration in each chamber, the fraction unbound can be calculated with the following equation: f ub = concentration in buffer chamber/concentration in plasma chamber (van […] et al. [2011]; Waters et al. [2008]). […]

human ERs = tested on: human ERs; design: method as in Kolle et al. [2010]; Wang et al. [2014]; settings: ref Kolle et al. [2010]; Wang et al. [2014]; cited from earlier work
[2] = rat, oral, read-out: In vivo C max, cited from earlier work
[3] = design: method as in Hansch et al. [1995]; settings: ref Hansch et al. [1995]; cited from earlier work
[4] = Substrate depletion approach, in vitro clearance (CLint) with rat liver S9; format: in vitro ADME; settings: for microsomal CLint at 3 µM / CLint in liver S9 at 3 µM: Sprague-Dawley, rat, liver S9 fraction; for CLint in liver S9 at 3 µM: 3 µM substrate
From the text: To develop a generic model, a fast and efficient approach needs to be applied to determine the hepatic clearance. To this end, a substrate depletion approach was used, as described by others (Jones and Houston [2004]; Obach [1999]; Obach and Reed-Hagen [2002]). Metabolic breakdown of the parent compound, referred to as “substrate depletion” is used to measure in vitro CLint of the parent compound, where the consumption rate of the parent compound using hepatic microsomes, hepatic S9 fractions or hepatocytes, is measured over a range of incubation times under linear conditions with respect to protein concentration and substrate concentration (Jones and Houston [2004]).
The CLint of the parent compounds via phase I and phase II metabolism was determined in incubations with liver S9 fraction from both male and female Sprague–Dawley rats, in the presence of all relevant co-factors NADPH, UDPGA, PAPS and acetyl CoA. To investigate whether the in vitro CLint value derived from incubations for individual reactions (with individual co-factors) is similar as the CLint value derived from incubations with all the co-factors together in one mixture, two approaches were applied. In the first approach, the parent compound was incubated with individual co-factors in Eppendorf tubes applying a final volume of 200 µL containing either 3 mM NADPH, 5 mM UDPGA (also including 5 mM MgCl2 and 0.025 mg/ml alamethicin), 0.2 mM PAPS, or 0.5 mM acetyl CoA, with 0.5 mg/ml liver S9 in 0.1 M potassium phosphate (pH 7.4) buffer. After pre-incubating the mixtures at 37 °C for 1 min, the reactions were started by adding 3 µM (final concentration) of the parent compound from a 100 times concentrated stock solution dissolved in DMSO. In the second approach, it was tested whether the methodology could be simplified by adding all the co-factors to one incubation mixture and the parent compound after pre-incubation. For both approaches, 14 time points were selected at which the reaction was terminated, being 0, 1, 2, 3, 4, 5, 7, 8.5, 10, 15, 20, 25, 30 and 45 min. To terminate the reaction 100 µL cold acetonitrile (ACN) was added to the mixture and the Eppendorf tubes were put on ice for 30 min. Subsequently, tubes were centrifuged at 15,000 rpm for 5 min (CT 15RE, Hitachi Koki Co., Ltd) and the supernatant was collected for UPLC analysis. For each incubation time point, a corresponding control was included, which was an incubation performed in the absence of co-factor(s). All incubations were performed in triplicate in three independent studies.
The concentration of the parent compound was quantified for all the incubations using UPLC analysis performed as described below. The ratio of remaining parent compound concentration between incubation sample (C compound) and the control without co-factor (C control) was calculated for each incubation time. Subsequently, the depletion curve of the parent compound [ln(C compound/C control)] against time was derived as described before (Jones and Houston [2004]; Obach [1999]; Obach and Reed-Hagen [2002]). The slope of the linear part of the depletion curve represents the elimination rate constant (k, min^−1) for elimination of the parent compound. Using the following equation, the in vitro clearance (CLint, in vitro) of the parent compound can be estimated: CLint, in vitro (µL/min/mg protein) = V (µL)/P (mg) × k (min^−1) (Obach [1999]; Sjögren et al. [2009]). V represents volume (µL) of incubation mixture and P is the protein amount (mg) in the mixture. The in vitro CLint value derived from incubations with all co-factors together in one mixture (approach 2) was compared with the sum of the CLint values derived from incubations with a single co-factor (approach 1). The in vitro CLint of the parent compound was scaled to a whole liver, assuming that the S9 protein concentration in the rat liver is 87 g/kg liver (Chiu and Ginsberg [2011]).
For BPA, the analytical method was slightly changed based on the method for E2. […]

[5] = female, pH 7.4, female Sprague–Dawley rat liver S9, all co-factors (NADPH, UDPGA, PAPS, acetyl CoA) in one mixture, read-out: Female CLint
[6] = male, pH 7.4, male Sprague–Dawley rat liver S9, all co-factors (NADPH, UDPGA, PAPS, acetyl CoA) in one mixture, read-out: Male CLint
[7] = male, pH 7.4, male Sprague–Dawley rat liver S9, individual co-factor NADPH
[8] = male, pH 7.4, male Sprague–Dawley rat liver S9, individual co-factor PAPS
[9] = male, pH 7.4, male Sprague–Dawley rat liver S9, individual co-factor UDPGA
[10] = male, pH 7.4, male Sprague–Dawley rat liver S9, read-out: CLint, SUM of incubations with individual co-factors

In the case of CC(C)(c1ccc(O)cc1)c1ccc(O)cc1 [BPA, bisphenol A], the “Mean value of uterus weight” value (uterus weight in rats; rat (AP), 10 mg/kg bw, ref Tinwell and Ashby 2004) is listed as 23.9 mg, the “Mean value of uterus weight” value (uterus weight in rats; rat (AP), 100 mg/kg bw, ref Tinwell and Ashby 2004) is listed as 29.0 mg and the “Mean value of uterus weight” value (uterus weight in rats; rat (AP), 300 mg/kg bw, ref Tinwell and Ashby 2004) is listed as 38.5 mg. For the same molecule, the “Mean value of uterus weight” value (uterus weight in rats; rat (AP), 600 mg/kg bw, ref Tinwell and Ashby 2004) was 41.4 mg, the “Mean value of uterus weight” value (uterus weight in rats; rat (AP), 800 mg/kg bw, ref Tinwell and Ashby 2004) was 59.0 mg and the “Mean value of uterus weight” value (uterus weight in rats; rat (Sprague–Dawley), 60 mg/kg bw, ref Kanno et al. 2003) was 26.8 mg. The “Mean value of uterus weight” value (uterus weight in rats; rat (Sprague–Dawley), 200 mg/kg bw, ref Kanno et al. 2003) was 30.1 mg, the “Mean value of uterus weight” value (uterus weight in rats; rat (Sprague–Dawley), 375 mg/kg bw, ref Kanno et al. 2003) was 30.4 mg and the “Mean value of uterus weight” value (uterus weight in rats; rat (Sprague–Dawley), 600 mg/kg bw, ref Kanno et al. 2003) was 37.0 mg. For the same molecule, the “Mean value of uterus weight” value (uterus weight in rats; rat (Sprague–Dawley), 1000 mg/kg bw, ref Kanno et al. 2003) was 44.1 mg, the fraction unbound at 5 h, 5 µM [1] was 0.04 ± 0.001 and the “Higher concentrations required for an estrogenic response in the YES assay than in MCF-7/BOS proliferation and U2OS ER-CALUX assays” value (human ERs) was 3 orders of magnitude. The Cmax ([2]; 10 mg/kg bw, ref Pottenger et al. (2000)) was 175 nM, the Cmax ([2]; 100 mg/kg bw, ref Pottenger et al. (2000)) was 9880 nM and the “Log P ow” value [3] was 3.3^a. The “CLint fold higher for female than for male rat liver S9” value ([4]; all co-factors in one mixture) was 1.1 fold, the microsomal CLint at 3 µM [4, 5] was 432 ± 12.5 µL/min/mg and the microsomal CLint at 3 µM [4, 6] was 392 ± 6.7 µL/min/mg. The CLint in liver S9 at 3 µM [4, 7] was 60 ± 4.8 µL/min/mg, the CLint in liver S9 at 3 µM [4, 8] was 3.4 ± 2.1 µL/min/mg and the CLint in liver S9 at 3 µM [4, 9] was 340 ± 7.8 µL/min/mg. For the same molecule, the microsomal CLint at 3 µM [4, 10] was 403 ± 9.4 µL/min/mg.

For C[C@]12CC[C@@H]3c4ccc(O)cc4CC[C@H]3[C@@H]1CC[C@@H]2O [E2, 17β-estradiol], the “Mean value of uterus weight” value (uterus weight in rats; rat (AP), 0.01 mg/kg bw, ref Odum et al., 1997) is listed as 37.5 mg, the “Mean value of uterus weight” value (uterus weight in rats; rat (AP), 0.02 mg/kg bw, ref Odum et al., 1997) is listed as 39 mg and the “Mean value of uterus weight” value (uterus weight in rats; rat (AP), 0.04 mg/kg bw, ref Odum et al., 1997) is listed as 38.3 mg. For the same molecule, the “Mean value of uterus weight” value (uterus weight in rats; rat (AP), 0.10 mg/kg bw, ref Odum et al., 1997) was 68.1 mg, the “Mean value of uterus weight” value (uterus weight in rats; rat (AP), 0.20 mg/kg bw, ref Odum et al., 1997) was 70.9 mg and the “Mean value of uterus weight” value (uterus weight in rats; rat (AP), 0.40 mg/kg bw, ref Odum et al., 1997) was 101.7 mg. The fraction unbound at 5 h, 5 µM [1] was 0.05 ± 0.005, the “Higher concentrations required for an estrogenic response in the YES assay than in MCF-7/BOS proliferation and U2OS ER-CALUX assays” value (human ERs) was 2 orders of magnitude and the Cmax ([2]; 0.02 mg/kg bw, ref Bawarshi-Nassar et al. (1989)) was 0.6 nM. For the same molecule, the Cmax ([2]; 0.08 mg/kg bw, ref Bawarshi-Nassar et al. (1989)) was 2.7 nM, the “Log P ow” value [3] was 4.0^a and the “Female CLint” value ([4]; female Sprague–Dawley rat liver S9, all co-factors (NADPH, UDPGA, PAPS, acetyl CoA) in one mixture) was 65.5 ± 12.3 µl/min/mg protein. For the same molecule, the microsomal CLint at 3 µM [4, 5] was 65.5 µL/min/mg, the microsomal CLint at 3 µM [4, 6] was 175 ± 13.3 µL/min/mg and the CLint in liver S9 at 3 µM [4, 7] was 155 ± 26.7 µL/min/mg. It also gave a CLint in liver S9 at 3 µM [4, 8] of 4.4 ± 1.6 µL/min/mg, a CLint in liver S9 at 3 µM [4, 9] of 23.3 ± 0.9 µL/min/mg and a microsomal CLint at 3 µM [4, 10] of 182 ± 26.8 µL/min/mg.
